In US20100041657A1, “HALOALKYLSULFONE SUBSTITUTED COMPOUNDS USEFUL FOR TREATING OBESITY AND DIABETES” (NOVO NORDICK A/S, priority 2005, published 2010) one finds melting point data, which are given here for 31 molecules.

Where “and” joins values, the source holds several entries; their conditions need not be identical. Equal entries are not always repeated.

As a reminder, the melting point is the temperature, or range, at which the solid turns liquid. For `O=C(Nc1ccc(S(=O)(=O)C(F)(F)F)cc1Cl)c1c(O)c(C23CC4CC(CC(C4)C2)C3)cc2c1CCC2` [Example 30, 6-Adamantan-1-yl-5-hydroxy-indan-4-carboxylic acid (2-chloro-4-trifluoromethanesulfonyl-phenyl)-amide], the melting point fell in the range of 218 to 219 °C.
`CC(C)(C)c1cc(C(C)(C)C)c(O)c(C(=O)Nc2ccc(S(=O)(=O)C(F)(F)F)cc2Cl)c1O` [Example 100, 3,5-Di-tert-butyl-N-(2-chloro-4-trifluoromethanesulfonyl-phenyl)-2,6-dihydroxy-benzamide] returned a melting point of 149 to 150 °C.
Consider `CC(C)(C)c1cc2c(c(C(=O)Nc3ccc(S(=O)(=O)C(F)(F)F)cc3Cl)c1O)CCO2` [Example 94, 6-tert-Butyl-5-hydroxy-2,3-dihydro-benzofuran-4-carboxylic acid (2-chloro-4-trifluoromethanesulfonyl-phenyl)-amide], for which the melting point is 201 to 202 °C.
Then `Cc1c(O)cc(C(C)(C)C)c(O)c1C(=O)Nc1ccc(S(=O)(=O)C(F)(F)F)cc1Cl` [Example 95, 3-tert-Butyl-N-(2-chloro-4-trifluoromethanesulfonyl-phenyl)-2,5-dihydroxy-6-methylbenzamide], with 163 to 166 °C; and `O=C(Nc1cccc(SC(F)(F)F)c1)c1ccc2ccccc2c1O` [Example 17, 1-Hydroxy-naphthalene-2-carboxylic acid (3-trifluoromethylsulfanyl-phenyl)-amide], with 154 °C.
In turn, `O=C(Nc1cccc(S(=O)(=O)C(F)(F)F)c1)c1ccc2ccccc2c1O` [Example 16, 1-Hydroxy-naphthalene-2-carboxylic acid (3-trifluoromethanesulfonyl-phenyl)-amide] gave a melting point of 194 to 195 °C.
To `O=C(Nc1ccc(S(=O)(=O)C(F)(F)F)cc1Cl)c1cc(-c2ccc(F)cc2F)cc(C23CC4CC(CC(C4)C2)C3)c1O` [Example 32, 5-Adamantan-1-yl-2′,4′-difluoro-4-hydroxy-biphenyl-3-carboxylic acid (2-chloro-4-trifluoromethanesulfonyl-phenyl)-amide] belongs 177 to 178 °C.
Then `O=C(Nc1ccc(S(=O)(=O)C(F)(F)F)cc1Cl)c1c(O)c(C23CC4CC(CC(C4)C2)C3)cc2c1CCCC2` [Example 29], with 205 to 206 °C.
With `CCc1ccc(C(C)(C)C)c(O)c1C(=O)Nc1ccc(S(=O)(=O)C(F)(F)F)cc1Cl` [Example 46, 3-tert-Butyl-N-(2-chloro-4-trifluoromethanesulfonyl-phenyl)-6-ethyl-2-hydroxybenzamide], the melting point was 126 to 127 °C.
To `O=C(Nc1ccc(S(=O)(=O)C(F)(F)F)cc1Cl)c1cc(Sc2ccc(F)cc2)c2ccccc2c1O` [Example 31, 4-(4-Fluoro-phenylsulfanyl)-1-hydroxy-naphthalene-2-carboxylic acid (2-chloro-4-trifluoromethanesulfonyl-phenyl)-amide] belongs 195 to 198 °C; to `Cc1cc(C(=O)Nc2ccc(S(=O)(=O)C(F)(F)F)cc2Cl)c(O)c(C(C)(C)C)c1` [Example 26, 3-tert-Butyl-N-(2-chloro-4-trifluoromethanesulfonyl-phenyl)-2-hydroxy-5-methylbenzamide], 209 to 212 °C.
On to `CC(C)(C)c1cc2c(c(C(=O)Nc3ccc(S(=O)(=O)C(F)(F)F)cc3Cl)c1O)CCCC2` [Example 50, 3-tert-Butyl-2-hydroxy-5,6,7,8-tetrahydro-naphthalene-1-carboxylic acid (2-chloro-4-trifluoromethanesulfonyl-phenyl)-amide], for which the melting point stood at 151 °C.
Regarding `O=C(Nc1cccc(S(=O)(=O)C(F)(F)F)c1)c1c(O)ccc2ccccc12` [Example 18, 2-Hydroxy-naphthalene-1-carboxylic acid (3-trifluoromethanesulfonyl-phenyl)-amide], the melting point fell in the range of 179 to 180 °C.
Molecule `O=C(Nc1ccc(SC(F)(F)F)cc1)c1cc(Cl)c2ccccc2c1O` [Example 23, 4-Chloro-1-hydroxy-naphthalene-2-carboxylic acid (4-trifluoromethylsulfanyl-phenyl)amide] showed a melting point of 172 to 175 °C.
`O=C(Nc1ccc(SC(F)(F)F)cc1)c1ccc2c(c1O)CCCC2` [Example 21, 1-Hydroxy-5,6,7,8-tetrahydro-naphthalene-2-carboxylic acid (4-trifluoromethylsulfanyl-phenyl)-amide] yielded a melting point of 167 °C.
As to `CC(C)(C)c1cc2c(c(C(=O)Nc3ccc(S(=O)(=O)C(F)(F)F)cc3Cl)c1O)CCC2` [Example 48, 6-tert-Butyl-5-hydroxy-indan-4-carboxylic acid (2-chloro-4-trifluoromethanesulfonylphenyl)-amide], the melting point was 172 to 173 °C.
To `COc1c(O)cc(C(C)(C)C)c(O)c1C(=O)Nc1ccc(S(=O)(=O)C(F)(F)F)cc1Cl` [Example 96, 3-tert-Butyl-N-(2-chloro-4-trifluoromethanesulfonyl-phenyl)-2,5-dihydroxy-6-methoxy-benzamide] belongs 171 to 175 °C.
In turn, `Cc1cc(C(=O)Nc2ccc(S(=O)(=O)C(F)(F)F)cc2Cl)c(O)c(C23CC4CC(CC(C4)C2)C3)c1` [Example 24, 3-Adamantan-1-yl-N-(2-chloro-4-trifluoromethanesulfonyl-phenyl)-2-hydroxy-5-methyl-benzamide] returned a melting point of 203 to 204 °C.
`COc1ccc(C(C)(C)C)c(O)c1C(=O)Nc1ccc(S(=O)(=O)C(F)(F)F)cc1Cl` [Example 92, 3-tert-Butyl-N-(2-chloro-4-trifluoromethanesulfonyl-phenyl)-2-hydroxy-6-methoxy-benzamide]: the melting point is 198 to 199 °C.
`CSc1c(C)cc(O)c(C(=O)Nc2ccc(S(=O)(=O)C(F)(F)F)cc2Cl)c1C` [Example 163, N-(2-Chloro-4-trifluoromethanesulfonyl-phenyl)-6-hydroxy-2,4-dimethyl-3-methylsulfanyl-benzamide]: the melting point is 205 to 206 °C and 201 to 202 °C.
Consider `COc1cc(C(=O)Nc2ccc(S(=O)(=O)C(F)(F)F)cc2Cl)c(O)c(C(C)(C)C)c1` [Example 53, 3-tert-Butyl-N-(2-chloro-4-trifluoromethanesulfonyl-phenyl)-2-hydroxy-5-methoxy-benzamide], for which the melting point lay in the range of 126 to 127 °C.
In turn, `COc1cc(C(C)(C)C)c(O)c(C(=O)Nc2ccc(S(=O)(=O)C(F)(F)F)cc2Cl)c1C` [Example 93, 3-tert-Butyl-N-(2-chloro-4-trifluoromethanesulfonyl-phenyl)-2-hydroxy-5-methoxy-6-methyl-benzamide] showed a melting point of 121 to 122 °C.
Molecule `CC1(c2cc(-c3ccc(F)cc3F)cc(C(=O)Nc3ccc(S(=O)(=O)C(F)(F)F)cc3Cl)c2O)CCCCC1` [Example 35, 2′,4′-Difluoro-4-hydroxy-5-(1-methyl-cyclohexyl)-biphenyl-3-carboxylic acid (2-chloro-4-trifluoromethanesulfonyl-phenyl)-amide] gave a melting point of 114 to 115 °C.
To `Cc1c([S+](C)[O-])cc(C(C)(C)C)c(O)c1C(=O)Nc1ccc(S(=O)(=O)C(F)(F)F)cc1Cl` (stereo not shown) [Example 51, 3-tert-Butyl-N-(2-chloro-4-trifluoromethanesulfonyl-phenyl)-2-hydroxy-5-methanesulfinyl-6-methyl-benzamide] belongs 218 to 219 °C (dec.); to `O=C(Nc1ccc(S(=O)(=O)C(F)(F)F)cc1Cl)c1cc([S+]([O-])c2ccc(F)cc2)c2ccccc2c1O` (stereo not shown) [Example 33, 4-(4-Fluoro-benzenesulfinyl)-1-hydroxy-naphthalene-2-carboxylic acid (2-chloro-4-trifluoromethanesulfonyl-phenyl)-amide], 198 to 199.5 °C; to `O=C(Nc1ccc(SC(F)(F)F)c(Cl)c1)c1cc(Cl)c2ccccc2c1O` [Example 27, 4-Chloro-1-hydroxy-naphthalene-2-carboxylic acid (3-chloro-4-trifluoromethylsulfanyl-phenyl)-amide], 148 to 149 °C.
Molecule `COc1cc(C(C)(C)C)c(O)c(C(=O)Nc2ccc(S(=O)(=O)C(F)(F)F)cc2Cl)c1O` [Example 97, 3-tert-Butyl-N-(2-chloro-4-trifluoromethanesulfonyl-phenyl)-2,6-dihydroxy-5-methoxy-benzamide] displayed a melting point of 170 to 171 °C.
`O=C(Nc1cccc(S(=O)(=O)C(F)(F)F)c1)c1cc2ccccc2cc1O` [Example 19, 3-Hydroxy-naphthalene-2-carboxylic acid (3-trifluoromethanesulfonyl-phenyl)-amide] showed a melting point of 212 to 213 °C.
Take `CCc1c(C(C)(C)C)cc(C(C)(C)C)c(O)c1C(=O)Nc1ccc(S(=O)(=O)C(F)(F)F)cc1Cl` [Example 47, 3,5-Di-tert-butyl-N-(2-chloro-4-trifluoromethanesulfonyl-phenyl)-2-ethyl-6-hydroxybenzamide]: the melting point is 157 to 158 °C.
On to `CC(C)c1ccc(C(C)(C)C)c(O)c1C(=O)Nc1ccc(S(=O)(=O)C(F)(F)F)cc1Cl` [Example 54, 3-tert-Butyl-N-(2-chloro-4-trifluoromethanesulfonyl-phenyl)-2-hydroxy-6-isopropyl-benzamide], for which the melting point lay in the range of 116 to 116.5 °C.
As for `O=C(Nc1ccc(SC(F)(F)F)cc1)c1cc(S(=O)(=O)c2ccccc2)c2ccccc2c1O` [Example 22, 4-Benzenesulfonyl-1-hydroxy-naphthalene-2-carboxylic acid (4-trifluoromethylsulfanyl-phenyl)-amide], the melting point was in the range of 271 to 272 °C.
